Experimental findings from patent publication US20240108006A1, “PESTICIDALLY ACTIVE HETEROAROMATIC COMPOUNDS” (SYNGENTA CROP PROTECTION AG, priority 2021, published 2024) are described below.

For one series, the system named is Diabrotica balteata. The experiment in a line: Example B2: Diabrotica balteata (corn root worm), maize sprouts, L2 larvae. Format: in vivo. Conditions: 96 h, application rate of 200 ppm, 4 days after infestation, read-out: control in at least one of the two categories (mortality or growth inhibition). An outline of the steps:
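Maize sprouts on agar sprayed with aqueous test solutions made from 10,000 ppm DMSO stocks, dried, then infested with 6 to 10 L2 larvae per well. Mortality and growth inhibition assessed versus untreated samples 4 days after infestation; application rate 200 ppm.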

For the next series, the system named is Euschistus heros. As to the kind of experiment: Example B3: Euschistus heros (neotropical brown stink bug), soybean leaves, N2 nymphs. The class given is in vivo. Conditions: 120 h, application rate of 200 ppm, 5 days after infestation, read-out: control in at least one of the two categories (mortality or growth inhibition). Here is the method:
Example B3: Euschistus heros (Neotropical Brown Stink Bug)
Soybean leaves on agar in 24-well microtiter plates were sprayed with aqueous test solutions prepared from 10,000 ppm DMSO stock solutions. After drying the leaves were infested with N2 nymphs. The samples were assessed for mortality and growth inhibition in comparison to untreated samples 5 days after infestation.
The following compounds gave an effect of at least 80% control in at least one of the two categories (mortality or growth inhibition) at an application rate of 200 ppm: […]

The next series relates to Spodoptera littoralis. The experiment in a line: Example B9: Spodoptera littoralis (Egyptian cotton leaf worm), cotton leaf discs, L1 larvae. Format: in vivo. Conditions: foliar, 72 h, application rate of 200 ppm, 3 days after infestation, read-out: control in at least one of the three categories (mortality, anti-feedant effect, or growth inhibition). An outline of the steps:
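Cotton leaf discs on agar sprayed with aqueous test solutions from 10,000 ppm DMSO stocks, dried, then infested with five L1 larvae. Mortality, anti-feeding and growth inhibition scored against untreated samples 3 days after infestation.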

For a further series, the system named is Chilo suppressalis. As to the kind of experiment: Example B1: Chilo suppressalis (striped rice stemborer), artificial diet, L2 larvae. Format: in vivo. The conditions noted are these: 144 h, application rate of 200 ppm, 6 days after infestation, read-out: control in at least one of the three categories (mortality, anti-feedant effect, or growth inhibition). An outline of the steps:
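Artificial diet was treated with aqueous test solutions made from 10,000 ppm DMSO stocks, dried, then infested with L2 larvae (6-8 per well). Mortality, anti-feeding effect and growth inhibition were scored against untreated samples 6 days after infestation, and control was counted when any category exceeded untreated.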

The next series has as its system Plutella xylostella. The experiment in a line: Example B8: Plutella xylostella (diamond back moth), artificial diet 24-well, eggs. The class given is in vivo. Conditions: 192 h, application rate of 200 ppm, 8 days after infestation, read-out: effect in at least one of the two categories (mortality or growth inhibition). An outline of the steps:
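Artificial diet in 24-well plates treated with aqueous dilutions of DMSO stock (10,000 ppm stock) and dried, then infested with Plutella eggs. Mortality and growth inhibition scored versus untreated samples 8 days after infestation.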

In series [1] the test system is Myzus persicae. The experiment in a line: Example B7: Myzus persicae (green peach aphid), intrinsic activity, sucrose solution 24-well. Format: in vivo. Conditions: 120 h, application rate of 12.5 ppm, 5 days after infestation, read-out: control (mortality). Summed up:
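Compounds from 10,000 ppm DMSO stocks were mixed into sucrose solution in wells at a rate of 12.5 ppm. Aphid-infested pea seedlings were placed on a Parafilm membrane over the solution, so aphids fed through it. Mortality was scored 5 days after infestation.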

The subject of series [2] is Myzus persicae. As to the kind of experiment: Example B5: Myzus persicae (green peach aphid), feeding/contact activity. Conditions: 144 h, application rate of 200 ppm, 6 days after infestation. The class given is in vivo. Here is the method:
Example B5: Myzus persicae (Green Peach Aphid):Feeding/Contact Activity
Sunflower leaf discs were placed onto agar in a 24-well microtiter plate and sprayed with aqueous test solutions prepared from 10,000 ppm DMSO stock solutions. After drying, the leaf discs were infested with an aphid population of mixed ages. The samples were assessed for mortality 6 days after infestation.

Series [3] relates to Frankliniella occidentalis. As to the kind of experiment: Example B4: Frankliniella occidentalis (western flower thrips), feeding/contact activity. The class given is in vivo. The conditions noted are these: 168 h, application rate of 200 ppm, 7 days after infestation. How it is done:
Example B4: Frankliniella occidentalis (Western Flower Thrips):Feeding/Contact Activity
Sunflower leaf discs were placed on agar in 24-well microtiter plates and sprayed with aqueous test solutions prepared from 10,000 DMSO stock solutions. After drying the leaf discs were infested with a Frankliniella population of mixed ages. The samples were assessed for mortality 7 days after infestation.

Some results are limits rather than exact numbers.

One may read the melting point as the temperature of the solid-liquid transition. The compound `C[C@@H]1CN(C(=O)c2ccc(-n3ncnc3[C@H](C)NC(=O)Nc3cc(C(F)(F)F)c(Cl)cc3Cl)nc2)C[C@H](C)O1` returned a melting point of 138 to 140 °C.
Same read-out and setting: the same measure for `CC(NC(=O)Nc1cc(C(F)(F)F)cc(C(F)(F)F)c1)c1ncnn1-c1ncccn1` (stereo not shown): 124 to 127 °C; for `C[C@H](NC(=S)Nc1cc(Cl)cc(C(F)(F)F)c1)c1ncnn1-c1ncccn1`: 106 to 108 °C.
Take `C[C@H](NC(=O)Nc1cnc(C(F)(F)F)cc1I)c1ncnn1-c1ncccn1`: the melting point is 183 to 186 °C.
The term mortality denotes the share of the test organisms that died. Consider `CC(NC(=O)Nc1ccc(C(F)(F)F)cc1C(F)(F)F)c1ncnn1-c1ncccn1` (stereo not shown) [Example P1, 1-[2,4-bis(trifluoromethyl)phenyl]-3-[1-(2-pyrimidin-2-yl-1,2,4-triazol-3-yl)ethyl]urea], for which the percent control (mortality or growth inhibition) at 200 ppm in the series on Diabrotica balteata and in the series on Euschistus heros was not below 80% in each case. For the same compound, the percent control (mortality, anti-feedant effect or growth inhibition) at 200 ppm in the series on Spodoptera littoralis and in the series on Chilo suppressalis was not below 80% in each case. For the same compound, the percent effect (mortality or growth inhibition) at 200 ppm in the series with Plutella xylostella was not below 80%. In addition, the mortality at 12.5 ppm in the series on Myzus persicae [1] is not below 80%.
Regarding `C[C@H](NC(=O)Nc1cnc(Br)cc1Br)c1ncnn1-c1ncccn1` [Example P55, 1-(4,6-dibromo-3-pyridyl)-3-[(1S)-1-(2-pyrimidin-2-yl-1,2,4-triazol-3-yl)ethyl]urea], in the series with Euschistus heros, the percent control (mortality or growth inhibition) at 200 ppm is not below 80%. Besides, the percent control (mortality, anti-feedant effect or growth inhibition) at 200 ppm in the series with Spodoptera littoralis and in the series on Chilo suppressalis was not below 80% each time. In the series on Plutella xylostella, the percent effect (mortality or growth inhibition) at 200 ppm is not below 80%. Moreover, the mortality at 12.5 ppm with Myzus persicae [1] is not below 80%.
In the series on Myzus persicae [2], `C[C@H](NC(=O)Nc1ccc(F)cc1C#N)c1ncnn1-c1ncccn1` [Example P62, 1-(2-cyano-4-fluoro-phenyl)-3-[(1S)-1-(2-pyrimidin-2-yl-1,2,4-triazol-3-yl)ethyl]urea] yielded a mortality at 200 ppm not below 80%. In addition, in the series on Euschistus heros, the percent control (mortality or growth inhibition) at 200 ppm was not below 80%.
With `Cc1cccc(Cl)c1NC(=O)N[C@@H](C)c1ncnn1-c1ncccn1` [Example P71, 1-(2-chloro-6-methyl-phenyl)-3-[(1S)-1-(2-pyrimidin-2-yl-1,2,4-triazol-3-yl)ethyl]urea], the mortality at 200 ppm in [3] is not below 80%.
In the case of `C[C@H](NC(=O)Nc1ccc(C(F)(F)F)cc1I)c1ncnn1-c1ncccn1` [Example P72, 1-[2-iodo-4-(trifluoromethyl)phenyl]-3-[(1S)-1-(2-pyrimidin-2-yl-1,2,4-triazol-3-yl)ethyl]urea], the percent control (mortality or growth inhibition) at 200 ppm with Euschistus heros was not below 80%. In addition, the percent control (mortality, anti-feedant effect or growth inhibition) at 200 ppm in the series with Spodoptera littoralis and in the series on Chilo suppressalis was not below 80% in each case. Also, the percent effect (mortality or growth inhibition) at 200 ppm in the series on Plutella xylostella is not below 80%. Also, the mortality at 12.5 ppm with Myzus persicae [1] was not below 80%.
In turn, `C[C@H](NC(=O)Nc1cc(OCc2ccc(Cl)cn2)c(Cl)cc1Cl)c1ncnn1-c1ncccn1` [Example P142, 1-[2,4-dichloro-5-[(5-chloro-2-pyridyl)methoxy]phenyl]-3-[(1S)-1-(2-pyrimidin-2-yl-1,2,4-triazol-3-yl)ethyl]urea] came in with a mortality at 200 ppm in [3] not below 80%.
Regarding `C[C@H](NC(=O)Nc1cc(C#N)c(Cl)cc1F)c1ncnn1-c1ncccn1` [Example P182, 1-(4-chloro-5-cyano-2-fluoro-phenyl)-3-[(1S)-1-(2-pyrimidin-2-yl-1,2,4-triazol-3-yl)ethyl]urea], the percent control (mortality or growth inhibition) at 200 ppm in the series with Euschistus heros was not below 80%. For the same compound, the percent control (mortality, anti-feedant effect or growth inhibition) at 200 ppm in the series on Spodoptera littoralis and in the series on Chilo suppressalis was not below 80% throughout. The percent effect (mortality or growth inhibition) at 200 ppm in the series with Plutella xylostella is not below 80%. Moreover, in the series with Myzus persicae [1], the mortality at 12.5 ppm was not below 80%.
`COC(=O)c1cc(Cl)c(Cl)cc1NC(=O)N[C@@H](C)c1ncnn1-c1ncccn1` [Example P199, methyl 4,5-dichloro-2-[[(1S)-1-(2-pyrimidin-2-yl-1,2,4-triazol-3-yl)ethyl]carbamoylamino]benzoate] registered a mortality at 200 ppm in series [3] not below 80%.
`Cc1cc2c(cc1NC(=O)N[C@@H](C)c1ncnn1-c1ncccn1)OCC(=O)N2` [Example P208, 1-(6-methyl-3-oxo-4H-1,4-benzoxazin-7-yl)-3-[(1S)-1-(2-pyrimidin-2-yl-1,2,4-triazol-3-yl)ethyl]urea] displayed a mortality at 200 ppm in series [3] not below 80%.
As for `C[C@H](NC(=O)Nc1cc(OC(F)(F)Cl)c(Cl)cc1F)c1ncnn1-c1ncccn1` [Example P219, 1-[4-chloro-5-[chloro(difluoro)methoxy]-2-fluoro-phenyl]-3-[(1S)-1-(2-pyrimidin-2-yl-1,2,4-triazol-3-yl)ethyl]urea], the percent control (mortality or growth inhibition) at 200 ppm in the series on Diabrotica balteata is not below 80%. Also, the percent control (mortality, anti-feedant effect or growth inhibition) at 200 ppm with Spodoptera littoralis and in the series on Chilo suppressalis was not below 80% throughout. For the same compound, the percent effect (mortality or growth inhibition) at 200 ppm with Plutella xylostella was not below 80%. The mortality at 200 ppm in [3] is not below 80%. In the series with Myzus persicae [1], the mortality at 12.5 ppm was not below 80%.
Consider `C[C@H](NC(=O)Nc1cc(C(F)(F)F)c(Cl)cc1Br)c1nccnc1-c1ccc(C#N)cn1` [Example P246, 1-[2-bromo-4-chloro-5-(trifluoromethyl)phenyl]-3-[(1S)-1-[3-(5-cyano-2-pyridyl)pyrazin-2-yl]ethyl]urea], for which the percent control (mortality or growth inhibition) at 200 ppm in the series on Diabrotica balteata and in the series on Euschistus heros was not below 80% in each case. Besides, the percent control (mortality, anti-feedant effect or growth inhibition) at 200 ppm with Spodoptera littoralis was not below 80%.
For `C[C@H](NC(=O)Nc1cc(OC(F)(F)C(F)F)c(Cl)cc1Cl)c1ncnn1-c1ccc(=O)n(C)n1` [Example P269, 1-[2,4-dichloro-5-(1,1,2,2-tetrafluoroethoxy)phenyl]-3-[(1S)-1-[2-(1-methyl-6-oxo-pyridazin-3-yl)-1,2,4-triazol-3-yl]ethyl]urea], the percent control (mortality or growth inhibition) at 200 ppm with Diabrotica balteata and in the series with Euschistus heros was not below 80% in each case. The percent control (mortality, anti-feedant effect or growth inhibition) at 200 ppm in the series on Spodoptera littoralis is not below 80%. In addition, the mortality at 12.5 ppm with Myzus persicae [1] is not below 80%.
As to `C[C@H](NC(=O)Nc1cnc(C(F)(F)F)cc1Br)c1ncnn1-c1ncccn1` [Example P280, 1-[4-bromo-6-(trifluoromethyl)-3-pyridyl]-3-[(1S)-1-(2-pyrimidin-2-yl-1,2,4-triazol-3-yl)ethyl]urea], the percent control (mortality or growth inhibition) at 200 ppm with Diabrotica balteata and in the series on Euschistus heros was not below 80% throughout. Also, the percent control (mortality, anti-feedant effect or growth inhibition) at 200 ppm in the series with Spodoptera littoralis and with Chilo suppressalis was not below 80% throughout. In the series on Plutella xylostella, the percent effect (mortality or growth inhibition) at 200 ppm was not below 80%. In addition, the mortality at 200 ppm in series [3] is not below 80%. In addition, in the series on Myzus persicae [1], the mortality at 12.5 ppm is not below 80%.
In the series with Myzus persicae [2], `Cc1cc(C(F)(F)F)ncc1NC(=O)N[C@@H](C)c1ncnn1-c1ncccn1` [Example P328, 1-[4-methyl-6-(trifluoromethyl)-3-pyridyl]-3-[(1S)-1-(2-pyrimidin-2-yl-1,2,4-triazol-3-yl)ethyl]urea] gave a mortality at 200 ppm not below 80%. The percent control (mortality or growth inhibition) at 200 ppm in the series with Euschistus heros was not below 80%. Besides, the percent control (mortality, anti-feedant effect or growth inhibition) at 200 ppm in the series on Chilo suppressalis is not below 80%. In addition, the mortality at 12.5 ppm with Myzus persicae [1] was not below 80%.
Take `C[C@H](NC(=O)Nc1cc(F)c(Br)cc1OC(F)F)c1ncnn1-c1ncccn1` [Example P390, 1-[4-bromo-2-(difluoromethoxy)-5-fluoro-phenyl]-3-[(1S)-1-(2-pyrimidin-2-yl-1,2,4-triazol-3-yl)ethyl]urea]: the percent control (mortality or growth inhibition) at 200 ppm in the series with Diabrotica balteata and in the series on Euschistus heros was not below 80% throughout. Also, the percent control (mortality, anti-feedant effect or growth inhibition) at 200 ppm in the series on Spodoptera littoralis and with Chilo suppressalis was not below 80% in each case. The percent effect (mortality or growth inhibition) at 200 ppm in the series with Plutella xylostella was not below 80%. Moreover, the mortality at 12.5 ppm in the series with Myzus persicae [1] is not below 80%.
